From US7390795B2, “Treatment and prevention of tissue damage” (Pentraxin Therapeutics Limited, priority 2000, dated 2008)
Read-outs that look alike come from different tables or passages of the source.

Tests used:
C-reactive protein (CRP) = target: T1, C-reactive protein (CRP) (Homo sapiens, UniProt P02741); test: Inhibition of binding of 125I radiolabelled CRP to enzyme modified low density lipoprotein immobilized in microtitre plates
T1 construct: from tissue; host or cells: Human material
T1 sequence (P02741 19-224): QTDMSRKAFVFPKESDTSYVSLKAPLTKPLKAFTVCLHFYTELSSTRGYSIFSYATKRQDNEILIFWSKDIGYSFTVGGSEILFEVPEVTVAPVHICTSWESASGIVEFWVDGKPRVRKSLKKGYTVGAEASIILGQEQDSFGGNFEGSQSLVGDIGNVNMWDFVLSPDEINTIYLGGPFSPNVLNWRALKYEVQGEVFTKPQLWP
Experimental: Screening for Inhibitors of Binding of ^125I Radiolabelled CRP to Enzyme Modified Low Density Lipoprotein Immobilized in Microtitre Plates. […] However, likely critical ligands of importance in vivo in the pathogenesis of atherothrombosis, are modified forms of low density lipoprotein. […] All wells were then washed three times with 200 μl volumes of PBS before blocking by incubation for 1 h at room temperature with 100 μl per well of 0.2 m Tris pH 8.0. The wells were then washed again 3 times with 200 μl volumes of PBS and finally emptied before adding to each one 100 μl volumes of the following reagents.

[1] = system: experimental acute myocardial infarction produced by coronary artery ligation
Excerpt: Induction and Measurement of Myocardial Infarction. Female Wistar rats bred at ICSM, Hammersmith campus were used at age 9-10 wk and weighed 230-280 g. […] All animals were carefully examined and were healthy before being fasted overnight prior to surgery. General anesthesia was induced with inhaled isoflurane and supplemental oxygen was provided at 1.0 liter/min. The chest was opened through the sixth intercostal space, anesthesia was discontinued but supplemental oxygen continued at 0.5 liter/min, and the pericardium was opened to allow the heart to be lifted cut of the thorax. The left anterior descending coronary artery was immediately ligated at a constant distance just below the atrium with a 5/0 silk suture, the heart was replaced and the chest closed whilst active ventilation with 100% oxygen was continued. The duration of pneumothorax was about 30 s. […] Buprenorphine 0.05 mg/kg was given immediately for post-operative analgesia and repeated 12 hourly.
Deep anesthesia was induced with isoflurane and the hearts were excised while still beating in sinus rhythm and immediately arrested in diastole by immersion in 10 ml of 30 mM KCl. They were then cleaned of any extraneous adherent tissue and weighed before being briefly chilled at −20° C. to produce sufficient rigidity to facilitate cutting into defined sections. Each heart was cut into four slices of equal thickness perpendicular to the course of the left coronary artery, starting from the apex of the heart and ending at the position of the ligature around that artery. These slices were designated A, B, C, and D starting from the apex, and each was washed with pure water and then immersed in 0.02 M phosphate buffer pH 7.4 containing 0.5 mg/ml of nitroblue tetrazolium (NBT) (Sigma) at 37° C. for 30 min. NBT stains viable but not infarcted myocardium.
After staining with NBT the slices were washed briefly in cold water before fixation in 10% buffered formalin for 48 h, and the proximal cut surface of each slice was then imaged under standard conditions with a high resolution digital camera. The captured images were coded and analyzed ‘blind’ without knowledge by the operators of the treatment received by the rat in question. Lines were drawn around the total area of the slice, the NBT negative infarct zone, and any parts of the image to be excluded from the estimation including valves, chordae tendinae, shadows and edges, and the area of the infarct was determined as a percentage of the total area. […] Statistical significance of differences between infarct sizes in different treatment groups within each experiment were sought by one way ANOVA and by Bonferroni t-tests.
In Vivo Treatments. […] Human CRP or SAP were injected i.p. at 40 mg/kg 1 h after coronary artery ligation and then at 24 h intervals until the rats were killed on day 5. The proteins were dissolved in 10 mM Tris, 140 mM NaCl, pH 8.0, also containing 2 mM CaCl2 in the case of human CRP, and the control rats received injections of the buffer alone at the same intervals.

[2] = Plasma clearance and serum concentration of injected human CRP and SAP in rats
Experimental: Human CRP or SAP were injected i.p. at 40 mg/kg 1 h after coronary artery ligation and then at 24 h intervals until the rats were killed on day 5. The proteins were dissolved in 10 mM Tris, 140 mM NaCl, pH 8.0, also containing 2 mM CaCl2 in the case of human CRP, and the control rats received injections of the buffer alone at the same intervals. […] Plasma clearance of human CRP was also studied in the same protocol in normal unoperated rats that had received cobra venom factor 24 h previously.

[3] = Experiment 2, 40 mg/kg i.p. 1 h after ligation then every 24 h, day 5
[4] = Experiment 2, 5 rats treated, 40 mg/kg i.p. daily

Compound | Inhibition of CRP binding to enzyme modified LDL, in words (C-reactive protein (CRP)) | Percent inhibition of binding of radiolabelled CRP to immobilized enzyme modified low density lipoprotein (C-reactive protein (CRP); compound molarity 1 μM) | Percent inhibition of binding of radiolabelled CRP to immobilized enzyme modified low density lipoprotein (C-reactive protein (CRP); compound molarity 10 μM) | Percent inhibition of binding of radiolabelled CRP to immobilized enzyme modified low density lipoprotein (C-reactive protein (CRP); compound molarity 100 μM) | Percent inhibition of binding of radiolabelled CRP to immobilized enzyme modified low density lipoprotein (C-reactive protein (CRP); compound molarity 1 mM) | Percent inhibition of binding of radiolabelled CRP to immobilized enzyme modified low density lipoprotein (C-reactive protein (CRP); compound molarity 10 mM) | Infarct size mean (SD) % [1, 3] | Day 5 survivors [1, 4] | further results
O=C(O)CN(CCN(CC(=O)O)CC(=O)O)CC(=O)O [EDTA] | All binding was inhibited | – | – | – | – | – | – | – | –
CCCCCCCCCCCCCCCCOP(=O)([O-])OCC[N+](C)(C)C [Hexadecyl phosphocholine, hexadecyl phosphocholine] | – | 0 | 0 | 76 | 73 | 94 | – | – | IC50 for inhibition of CRP binding to enzyme modified LDL (C-reactive protein (CRP); stated in words): in the micromolar range
NCCOP(=O)(O)O [Phosphoethanolamine, phosphoethanolamine] | inhibition at high concentration, but only modest effects when diluted | 0 | 0 | 39 | 90 | 92 | – | – | –
N[C@@H](COP(=O)(O)O)C(=O)O [Phosphoserine, phosphoserine] | – | 0 | 0 | 0 | 0 | 38 | – | – | –
Human CRP: isolated pure human C-reactive protein, a plasma pentraxin | – | – | – | – | – | – | 17.6 (0.4) % | 3 | Infarct size mean (SD) % ([1]; Experiment 1, 40 mg/kg i.p. 1 h after ligation then every 24 h, day 5): 21.2 (2.0) %; Day 5 survivors ([1]; Experiment 1, 5 rats treated, 40 mg/kg i.p. daily): 4; Day 5 survivors ([1]; Table 3 experiment, 5 or 6 rats treated): 3; Infarcts larger than in control untreated animals ([1]; complement sufficient rats, day 5, Table 3 experiment): approximately 40%; Clinical condition ([1]; coronary artery ligated rats, 40 mg/kg i.p.): rapidly became clinically less well than buffer-treated controls; Infarcts larger than in control rats treated with buffer or human SAP ([1]; day 5, Table 2 experiments): about 40%; Effect on the reduced infarct size in decomplemented rats ([1]; rat, in vivo): no effect at all; Infarct size mean (SD) % ([1]; rat, in vivo): 19.7 (1.6) %; Clinical condition ([1]; rats not operated on, same doses): absolutely no ill effects; Serum concentration of the injected protein ([2]; coronary artery ligated rats killed 24 h after the last of 5 daily 40 mg/kg i.p. injections): 13000 to 53000 ng/mL; Plasma clearance in decomplemented rats ([2]; single 40 mg/kg i.p., cobra venom factor 250 U/kg 24 h beforehand, unoperated rats): not affected by complement depletion
Human SAP: human serum amyloid P component, pentraxin closely related to CRP | – | – | – | – | – | – | 12.4 (1.9) % | 5 | Clinical condition ([1]; normal or coronary artery ligated rats): no adverse clinical effects
